# “Also recorded” adds a separate entry of the source.
# Tests used:
# SW480 cells = test: MTS cell viability assay, SW480; format: cell-based; conditions: Homo sapiens, SW480, 72 h; read-out: MTs IC50 ± SD SW480
# HCT116 cells = test: MTS cell viability assay, HCT116; format: cell-based; conditions: Homo sapiens, HCT-116, 72 h; read-out: MTs IC50 ± SD HCT116
# MDA-MB-231 cells [1] = test: MTS cell viability assay, MDA-MB-231; format: cell-based; conditions: Homo sapiens, MDA-MB-231, 72 h; read-out: MTs IC50 ± SD MDA-MB-231
# MDA-MB-468 cells = test: MTS cell viability assay, MDA-MB-468; format: cell-based; conditions: Homo sapiens, MDA-MB-468, 72 h, read-out: MTs IC50 ± SD MDA-MB-468
# BT-20 cells = test: MTS cell viability assay, BT-20; format: cell-based; conditions: Homo sapiens, BT-20, 72 h; read-out: MTs IC50 ± SD BT-20
# A549 cells = test: MTS cell viability assay, A549; format: cell-based; conditions: Homo sapiens, A549, 72 h; read-out: MTs IC50 ± SD A549
# [2] = test system: TOPFlash luciferase reporter in β-catenin activated HEK293 cells; test: TOPFlash luciferase reporter assay; format: cell-based; conditions: 24 h treatment, wild-type Tcf4 binding sites
# Procedure: (§1) FuGENE 6 (E2962, Promega) in a 96-well plate format was used for the transfection of HEK293 cells according to the manufacturer's instructions. HEK293 cells were co-transfected with 45 ng of the TOPFlash or FOPFlash reporter gene, 135 ng of pcDNA3.1-p-catenin and 20 ng of pCMV-RL normalization reporter gene. Cells were cultured in DMEM and 10% fatal bovine serum at 37° C. for 24 h, and different concentrations of inhibitors were then added. After 24 h, the luciferase reporter activity was measured using the Dual-Glo system (E2940, Promega). Normalized luciferase activity in response to the treatment with the inhibitors was compared with that obtained from the cells treated with DMSO. Experiments were performed in triplicate.
# [3] = test system: FOPFlash luciferase reporter in β-catenin activated HEK293 cells; test: FOPFlash luciferase reporter assay; format: cell-based; conditions: 24 h treatment, mutant Tcf4 binding sites
# Procedure: as §1
# β-catenin/Tcf PPI = format: cell-based; conditions: HCT116 cells, 24 h treatment
# MDA-MB-231 cells [4] = test: Scratch wound healing assay; format: cell-based, human; conditions: 10 μM; 10% serum; mitomycin; 14 h
# Procedure: Scratch wound healing assay. To the confluent monolayer of MDA-MB-231 cells in 24-well plates, wounds will be made by scraping a sterile 200 μL pipette tip. Cells were maintained in DMEM containing 10% FBS with 10 μg/mL mitomycin to inhibit cell proliferation. Images of wounds were taken immediately and 14 h after wounding.
# (§2) Scratch wound healing and Matrigel invasion assays using TNBC MDA-MB-231 cells were conducted.
# MDA-MB-231 cells [5] = test: Matrigel invasion assay; format: cell-based, human; conditions: 10 μM; 24 h
# Procedure: Matrigel invasion assay. MDA-MB-231 cells (5×10^4) suspended in 200 p L starvation medium were added to the upper chamber of a Matrigel coated insert (6.5 mm diameter, […]; Corning 353097), and the insert was placed in a 24-well plate containing […] DMEM medium with 10% FBS. Inhibitors were added to both upper and the lower chambers. Invasion assays were performed for 24 h and cells were fixed with 3.7% formaldehyde. Cells were stained with crystal violet staining solution. The cells on the upper side of the insert were removed with a cotton swab. Five randomly selected fields (×10 objectives) on the lower side of the insert were photographed, and the invaded cells were counted.
# as §2
# [6] = test system: Wnt/β-catenin hyperactive cancer cells; test: MTS cell viability assay, summary over cell lines; format: cell-based; conditions: result in words
# β-catenin/APC PPI = test: Co-IP experiment, HCT116 cells, β-catenin/APC; conditions: 24 h, concentrations sufficient to disrupt β-catenin/Tcf PPI
# β-catenin/E-cadherin PPI = test: Co-IP experiment, HCT116 cells, β-catenin/E-cadherin; conditions: 24 h, concentrations sufficient to disrupt β-catenin/Tcf PPI
Structure (SMILES),IC50 (SW480 cells) [µM],IC50 (HCT116 cells) [µM],IC50 (MDA-MB-231 cells [1]) [µM],IC50 (MDA-MB-468 cells) [µM],IC50 (BT-20 cells) [µM],IC50 (A549 cells) [µM],TOPFlash luciferase activity (transactivation of Wnt/β-catenin signaling) [2],FOPFlash luciferase reporter activity [3],disruption of the β-catenin/Tcf PPI (co-IP) (β-catenin/Tcf PPI),migration of TNBC MDA-MB-231 cells (wound healing) (MDA-MB-231 cells [4]),invasion of TNBC MDA-MB-231 cells (Matrigel) (MDA-MB-231 cells [5]),viability of Wnt/β-catenin hyperactive cancer cells [6],effect on the β-catenin/APC PPI (co-IP) (β-catenin/APC PPI),effect on the β-catenin/E-cadherin PPI (co-IP) (β-catenin/E-cadherin PPI)
"CCOC(=O)CC[C@H](NC(=O)[C@H](Cc1nn[nH]n1)NC(=O)[C@H](Cc1ccc2ccccc2c1)NC(=O)c1cc2cc(Cl)ccc2[nH]1)C(=O)Nc1ccc(OC(F)(F)F)cc1 [Compound 56, Ethyl (S)-4-((S)-2-((S)-2-(5-chloro-1H-indole-2-carboxamido)-3-(naphthalen-2-yl)propanamido)-3-(2H-tetrazol-5-yl)propanamido)-5-oxo-5-((4-(trifluoromethoxy)phenyl)amino)pentanoate]",14.1 ± 2.86,69.4 ± 7.21,12.3 ± 2.16,7.25 ± 0.72,16.5 ± 2.23,86.4 ± 8.58,suppressed transactivation of Wnt/β-catenin signaling in dose-dependent manners; also recorded: inhibited,did not inhibit,disrupted the β-catenin/Tcf PPI; also recorded: dose-dependently inhibited,selectively inhibited; also recorded: inhibited the migration; also recorded: effectively inhibit,selectively inhibited; also recorded: inhibited invasion; also recorded: effectively inhibit,selectively inhibited,without affecting; also recorded: had no effect,without affecting; also recorded: had no effect
"NC(=O)CC[C@H](NC(=O)[C@H](Cc1nn[nH]n1)NC(=O)[C@H](Cc1ccc2ccccc2c1)NC(=O)c1cc2cc(Cl)ccc2[nH]1)C(=O)Nc1ccc(OC(F)(F)F)cc1 [Compound 55, (S)-2-((S)-2-((S)-2-(5-Chloro-1H-indole-2-carboxamido)-3-(naphthalen-2-yl)propanamido)-3-(2H-tetrazol-5-yl)propanamido)-N^1-(4-(trifluoromethoxy)phenyl)pentanediamide]",28.2 ± 4.63,63.9 ± 7.48,34.3 ± 6.42,29.2 ± 4.02,38.4 ± 3.99,60.3 ± 10.5,inhibited,did not inhibit,–,–,–,–,–,–

# From patent US20250289848A1, “PEPTIDOMIMETIC INHIBITORS OF B-CATENIN/TCF PROTEIN-PROTEIN INTERACTION” (H. LEE MOFFITT CANCER CENTER AND RESEARCH INSTITUTE, INC., priority 2018, published 2025)
